Values quoted from earlier work, collected in paper PMC12506672, “A phase I study of HEC73543, an oral FLT3 inhibitor: the effect of food on pharmacokinetics after oral dosing in healthy Chinese volunteers” (Frontiers in Pharmacology, 2025).

How the values were obtained:
[1] = system: FLT3-ITD–positive leukemia samples; parameters: method as in Cucchi et al., 2018; details: ex vivo, especially high allelic ratio (AR ≥ 0.5); ref Cucchi et al., 2018
[2] = parameters: method as in James et al., 2020; details: high-fat meal, healthy subjects; ref James et al., 2020
[3] = parameters: method as in Kim, 2017; details: standard or high-fat meal compared to fasting; ref Kim, 2017

Row | SMILES | colony-forming capacity [1] | GLSM ratio (fed/fasted %) for AUC0–t [2] [%] | GLSM ratio (fed/fasted %) for AUC0–∞ [2] [%] | GLSM ratio (fed/fasted %) for AUC72 [2] [%] | GLSM ratio (fed/fasted %) for Cmax [2] [%] | delay of Tmax with food [3] [h] | increase of AUC exposure with food [3] | lowering of Cmax with food [3]
1 | CCc1nc(C(N)=O)c(Nc2ccc(N3CCC(N4CCN(C)CC4)CC3)c(OC)c2)nc1NC1CCOCC1 [gilteritinib] | markedly suppresses | 94.6 | 93.8 | 91.0 | 74.0 | – | – | –
2 | CO[C@@H]1[C@H](N(C)C(=O)c2ccccc2)C[C@H]2O[C@]1(C)n1c3ccccc3c3c4c(c5c6ccccc6n2c5c31)C(=O)NC4 [midostaurin] | – | – | – | – | – | 2.5 to 3 | 1.2- to 1.6 fold | 20%–27%
